Test results published in patent US12077503B2, “Substituted cyclic amides and their use as herbicides” (FMC CORPORATION, priority 2015, dated 2024).

Legend:
Format in all cases: in vivo
[1] = system: velvetleaf (Abutilon theophrasti); assay: Test G Pre-Emergence Protocol; conditions: Abutilon theophrasti, pre-emergence, 312 h, evaluated after 13 days; for pest or weed control at 15.625 g/ha: 15.625 g ai/ha; for pest or weed control at 15.625 g/ha / pest or weed control at 250 g/ha: read-out: Velvetleaf damage rating (100=total damage to plant; 0=no damage to plant); for pest or weed control at 62.5 g/ha: 62.5 g ai/ha, 100=total damage to plant, 0=no damage to plant, read-out: Velvetleaf damage rating; for pest or weed control at 250 g/ha: 250 g ai/ha
Summary of the method: (§1)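 Pots of seeds in standard soil were grown for one day in a glasshouse (24/16 °C day/night, 14 h light, 65% humidity), then sprayed with compound in acetone/water 50:50 with 0.5% Tween 20 at 15.625, 62.5 or 250 g/ha. Damage was scored after 13 days on a 0 (none) to 100 (total) scale.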

[2] = system: ivy-leaved morning glory (Ipomoea hederacea); assay: Test G Pre-Emergence Protocol; conditions: Ipomoea, pre-emergence, 312 h, evaluated after 13 days; for pest or weed control at 15.625 g/ha: 15.625 g ai/ha; for pest or weed control at 15.625 g/ha / pest or weed control at 250 g/ha: read-out: Morningglory, Ivy-leaved damage rating (100=total damage to plant; 0=no damage to plant); for pest or weed control at 62.5 g/ha: 62.5 g ai/ha, 100=total damage to plant, 0=no damage to plant, read-out: Morningglory, Ivy-leaved damage rating; for pest or weed control at 250 g/ha: 250 g ai/ha
Summary of the method: as §1

corn (Zea mays) [3] = assay: Test G Pre-Emergence Protocol; conditions: Zea mays, pre-emergence, 312 h, evaluated after 13 days; for plant injury at 15.625 g/ha: 15.625 g ai/ha; for plant injury at 15.625 g/ha / plant injury at 250 g/ha: read-out: Corn damage rating (100=total damage to plant; 0=no damage to plant); for plant injury at 62.5 g/ha: 62.5 g ai/ha, 100=total damage to plant, 0=no damage to plant, read-out: Corn damage rating; for plant injury at 250 g/ha: 250 g ai/ha
Summary of the method: as §1

[4] = system: giant foxtail (Setaria faberi); assay: Test G Pre-Emergence Protocol; conditions: Setaria faberi, pre-emergence, 312 h, evaluated after 13 days; for pest or weed control at 15.625 g/ha: 15.625 g ai/ha; for pest or weed control at 15.625 g/ha / pest or weed control at 250 g/ha: read-out: Foxtail, Giant damage rating (100=total damage to plant; 0=no damage to plant); for pest or weed control at 62.5 g/ha: 62.5 g ai/ha, 100=total damage to plant, 0=no damage to plant, read-out: Foxtail, Giant damage rating; for pest or weed control at 250 g/ha: 250 g ai/ha
Summary of the method: as §1

[5] = system: redroot pigweed (Amaranthus retroflexus); assay: Test G Pre-Emergence Protocol; conditions: Amaranthus retroflexus, pre-emergence, 312 h, evaluated after 13 days; for pest or weed control at 15.625 g/ha: 15.625 g ai/ha; for pest or weed control at 15.625 g/ha / pest or weed control at 250 g/ha: read-out: Pigweed, Redroot damage rating (100=total damage to plant; 0=no damage to plant); for pest or weed control at 62.5 g/ha: 62.5 g ai/ha, 100=total damage to plant, 0=no damage to plant, read-out: Pigweed, Redroot damage rating; for pest or weed control at 250 g/ha: 250 g ai/ha
Summary of the method: as §1

[6] = system: barnyardgrass (Echinochloa crus-galli); assay: Test G Pre-Emergence Protocol; conditions: Echinochloa crus-galli, pre-emergence, 312 h, evaluated after 13 days; for pest or weed control at 15.625 g/ha: 15.625 g ai/ha; for pest or weed control at 15.625 g/ha / pest or weed control at 250 g/ha: read-out: Barnyardgrass damage rating (100=total damage to plant; 0=no damage to plant); for pest or weed control at 62.5 g/ha: 62.5 g ai/ha, 100=total damage to plant, 0=no damage to plant, read-out: Barnyardgrass damage rating; for pest or weed control at 250 g/ha: 250 g ai/ha
Summary of the method: as §1

[7] = system: velvetleaf (Abutilon theophrasti); assay: Test G Post-Emergence Protocol; conditions: Abutilon theophrasti, post-emergence, 312 h, read-out: Velvetleaf damage rating; for pest or weed control at 15.625 g/ha: 15.625 g ai/ha, evaluated after 13 days (100=total damage to plant; 0=no damage to plant); for pest or weed control at 62.5 g/ha: 62.5 g ai/ha; for pest or weed control at 62.5 g/ha / pest or weed control at 250 g/ha: evaluated after 13 days, 100=total damage to plant, 0=no damage to plant; for pest or weed control at 250 g/ha: 250 g ai/ha
Summary of the method: (§2)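 A glasshouse post-emergence test: 8-day-old plants sprayed at 15.625, 62.5 or 250 g/ha, then grown at 24/16 °C day/night with 14 h light and 65% humidity. Damage rated 13 days later, 0–100.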

[8] = system: ivy-leaved morning glory (Ipomoea hederacea); assay: Test G Post-Emergence Protocol; conditions: Ipomoea, post-emergence, 312 h, read-out: Morningglory, Ivy-leaved damage rating; for pest or weed control at 15.625 g/ha: 15.625 g ai/ha, evaluated after 13 days (100=total damage to plant; 0=no damage to plant); for pest or weed control at 62.5 g/ha: 62.5 g ai/ha; for pest or weed control at 62.5 g/ha / pest or weed control at 250 g/ha: evaluated after 13 days, 100=total damage to plant, 0=no damage to plant; for pest or weed control at 250 g/ha: 250 g ai/ha
Summary of the method: as §2

corn (Zea mays) [9] = assay: Test G Post-Emergence Protocol; conditions: Zea mays, post-emergence, 312 h, read-out: Corn damage rating; for plant injury at 15.625 g/ha: 15.625 g ai/ha, evaluated after 13 days (100=total damage to plant; 0=no damage to plant); for plant injury at 62.5 g/ha: 62.5 g ai/ha; for plant injury at 62.5 g/ha / plant injury at 250 g/ha: evaluated after 13 days, 100=total damage to plant, 0=no damage to plant; for plant injury at 250 g/ha: 250 g ai/ha
Summary of the method: as §2

[10] = system: giant foxtail (Setaria faberi); assay: Test G Post-Emergence Protocol; conditions: Setaria faberi, post-emergence, 312 h, read-out: Foxtail, Giant damage rating; for pest or weed control at 15.625 g/ha: 15.625 g ai/ha, evaluated after 13 days (100=total damage to plant; 0=no damage to plant); for pest or weed control at 62.5 g/ha: 62.5 g ai/ha; for pest or weed control at 62.5 g/ha / pest or weed control at 250 g/ha: evaluated after 13 days, 100=total damage to plant, 0=no damage to plant; for pest or weed control at 250 g/ha: 250 g ai/ha
Summary of the method: as §2

[11] = system: redroot pigweed (Amaranthus retroflexus); assay: Test G Post-Emergence Protocol; conditions: Amaranthus retroflexus, post-emergence, 312 h, read-out: Pigweed, Redroot damage rating; for pest or weed control at 15.625 g/ha: 15.625 g ai/ha, evaluated after 13 days (100=total damage to plant; 0=no damage to plant); for pest or weed control at 62.5 g/ha: 62.5 g ai/ha; for pest or weed control at 62.5 g/ha / pest or weed control at 250 g/ha: evaluated after 13 days, 100=total damage to plant, 0=no damage to plant; for pest or weed control at 250 g/ha: 250 g ai/ha
Summary of the method: as §2

[12] = system: barnyardgrass (Echinochloa crus-galli); assay: Test G Post-Emergence Protocol; conditions: Echinochloa crus-galli, post-emergence, 312 h, read-out: Barnyardgrass damage rating; for pest or weed control at 15.625 g/ha: 15.625 g ai/ha, evaluated after 13 days (100=total damage to plant; 0=no damage to plant); for pest or weed control at 62.5 g/ha: 62.5 g ai/ha; for pest or weed control at 62.5 g/ha / pest or weed control at 250 g/ha: evaluated after 13 days, 100=total damage to plant, 0=no damage to plant; for pest or weed control at 250 g/ha: 250 g ai/ha
Summary of the method: as §2

Row | Compound | pest or weed control at 15.625 g/ha [1] [%] | pest or weed control at 62.5 g/ha [1] [%] | pest or weed control at 250 g/ha [1] [%] | pest or weed control at 15.625 g/ha [2] [%] | pest or weed control at 62.5 g/ha [2] [%] | pest or weed control at 250 g/ha [2] [%] | plant injury at 15.625 g/ha (corn (Zea mays) [3]) [%] | plant injury at 62.5 g/ha (corn (Zea mays) [3]) [%] | plant injury at 250 g/ha (corn (Zea mays) [3]) [%] | pest or weed control at 15.625 g/ha [4] [%] | pest or weed control at 62.5 g/ha [4] [%] | pest or weed control at 250 g/ha [4] [%] | pest or weed control at 15.625 g/ha [5] [%] | pest or weed control at 62.5 g/ha [5] [%] | pest or weed control at 250 g/ha [5] [%] | pest or weed control at 15.625 g/ha [6] [%] | pest or weed control at 62.5 g/ha [6] [%] | pest or weed control at 250 g/ha [6] [%] | pest or weed control at 15.625 g/ha [7] [%] | pest or weed control at 62.5 g/ha [7] [%] | further results
1 | COc1c(F)cc(C2CN(C)C(=O)C2C(=O)Nc2cccc(F)c2F)cc1Cl (stereo not drawn) [Compound 1709] | 0 | 20 | 30 | 0 | 10 | 20 | 0 | 70 | 90 | 70 | 80 | 90 | 0 | 20 | 50 | 60 | 70 | 80 | 20 | 10 | pest or weed control at 250 g/ha [7]: 50%; pest or weed control at 15.625 g/ha [8]: 10%; pest or weed control at 62.5 g/ha [8]: 50%; pest or weed control at 250 g/ha [8]: 70%; plant injury at 15.625 g/ha (corn (Zea mays) [9]): 30%; plant injury at 62.5 g/ha (corn (Zea mays) [9]): 60%; plant injury at 250 g/ha (corn (Zea mays) [9]): 80%; pest or weed control at 15.625 g/ha [10]: 70%; pest or weed control at 62.5 g/ha [10]: 80%; pest or weed control at 250 g/ha [10]: 80%; pest or weed control at 15.625 g/ha [11]: 20%; pest or weed control at 62.5 g/ha [11]: 10%; pest or weed control at 250 g/ha [11]: 30%; pest or weed control at 15.625 g/ha [12]: 30%; pest or weed control at 62.5 g/ha [12]: 70%; pest or weed control at 250 g/ha [12]: 80%
2 | COc1cc(C2CN(C)C(=O)C2C(=O)Nc2cccc(F)c2F)cc(OC)c1F (stereo not drawn) [Compound 1711] | 0 | 0 | 0 | 0 | 10 | 10 | 0 | 0 | 20 | 70 | 70 | 90 | 0 | 0 | 0 | 30 | 10 | 80 | 0 | 0 | pest or weed control at 250 g/ha [7]: 0%; pest or weed control at 15.625 g/ha [8]: 10%; pest or weed control at 62.5 g/ha [8]: 30%; pest or weed control at 250 g/ha [8]: 70%; plant injury at 15.625 g/ha (corn (Zea mays) [9]): 0%; plant injury at 62.5 g/ha (corn (Zea mays) [9]): 10%; plant injury at 250 g/ha (corn (Zea mays) [9]): 40%; pest or weed control at 15.625 g/ha [10]: 70%; pest or weed control at 62.5 g/ha [10]: 80%; pest or weed control at 250 g/ha [10]: 80%; pest or weed control at 15.625 g/ha [11]: 0%; pest or weed control at 62.5 g/ha [11]: 0%; pest or weed control at 250 g/ha [11]: 0%; pest or weed control at 15.625 g/ha [12]: 30%; pest or weed control at 62.5 g/ha [12]: 70%; pest or weed control at 250 g/ha [12]: 80%
